Series [1] has as its target T1, hAChE (Homo sapiens, UniProt P22303).
T1 construct: purchased Sigma-Aldrich
Description: Inhibition constants and inhibition type for hAChE (Dixon and Cornish-Bowden plots). In kind it is biochemical. Here is the method:
(§1) To study the mechanism of hAChE and hBChE inhibition by compound 2c, the inhibition constants (Ki) were determined. Experiments were performed using three different concentrations of acetylthiocholine (ATC) as substrate for hAChE or butyrylthiocholine (BTC) for hBChE. Analysis of Dixon and Cornish-Bowden plots established that hAChE and hBChE inhibition was of mixed type, with Kci (competitive inhibition) and Kui (uncompetitive) components: Kci = […], Kui = 315 ± 95 pM for hAChE (Figure 3A,B), and Kci = 10.1 ± 3.1 µM, Kui = 24 ± 4.6 µM for hBChE (Figure 3C,D).
(§2) The inhibition constants (Ki) for hAChE and hBChE were determined by Ellman’s method at 412 nm and 25 °C in 0.1M sodium phosphate buffer (pH = 8.0) with various substrate (ATC, BTC) concentrations in the range 0.01–0.1 mM, using UV-1800 Shimadzu (Kyoto, Japan) spectrophotometer. The final enzyme concentration in the assays was in the picomolar range. Controls of active enzyme and substrate spontaneous hydrolysis in the absence of an inhibitor were performed for each substrate concentration. Absorbance change was recorded for 5 min. Inhibition constants were determined from Dixon plot and Cornish-Bowden transformation.

In series [2] the target is T2, hBChE (Homo sapiens, UniProt P06276).
T2 construct: hBChE from blood plasma; purchased Sigma-Aldrich; host or cells: human blood plasma
T2 sequence (P06276 29-602): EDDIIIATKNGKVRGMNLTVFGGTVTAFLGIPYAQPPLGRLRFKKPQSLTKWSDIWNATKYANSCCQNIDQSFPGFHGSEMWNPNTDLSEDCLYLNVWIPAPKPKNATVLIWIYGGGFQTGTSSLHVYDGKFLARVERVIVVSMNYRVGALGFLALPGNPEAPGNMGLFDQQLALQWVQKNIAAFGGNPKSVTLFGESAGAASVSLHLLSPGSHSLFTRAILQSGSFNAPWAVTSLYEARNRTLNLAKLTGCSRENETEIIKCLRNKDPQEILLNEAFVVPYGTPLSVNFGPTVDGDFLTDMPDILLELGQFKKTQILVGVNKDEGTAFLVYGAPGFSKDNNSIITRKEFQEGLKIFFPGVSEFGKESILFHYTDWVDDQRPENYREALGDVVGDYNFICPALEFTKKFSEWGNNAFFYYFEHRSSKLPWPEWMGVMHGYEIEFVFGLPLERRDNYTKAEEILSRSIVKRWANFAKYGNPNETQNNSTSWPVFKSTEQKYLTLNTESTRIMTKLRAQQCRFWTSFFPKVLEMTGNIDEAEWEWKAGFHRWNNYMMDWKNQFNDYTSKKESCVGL
Put plainly: Inhibition constants and inhibition type for hBChE (Dixon and Cornish-Bowden plots). The series is classed as biochemical. Here is the method: as §1, §2

Series [3] concerns the target T1, hAChE. In kind it is in vitro ADME. The conditions noted are these: 0.1 mM, overnight with hAChE, phosphate buffer pH 8.0, 25 °C, NMR. As for the experimental part:
There is a possibility that the ester group of the compound 2c can be hydrolyzed by AChE. To test this possibility, the compound 2c (0.1 mM) was incubated overnight with AChE in phosphate buffer (pH 8.0). The same buffer containing compound 2c but without AChE was used as a control. After the end of incubation, the buffer was filtered out of AChE using a centricon-30 ultrafiltration micro-concentrator from Amicon (Millipore Corporation, Billerica, MA, USA) and samples were analyzed by NMR spectroscopy. It was shown that the resonance signals both in the control spectrum and in the spectrum of the residue after AChE treatment are almost the same to those for compound 2c (Supplementary materials, Figures S6, S22 and S41–S44).
The compound 2c was dissolved in ethanol and then in 2 mL of 0.1M sodium phosphate buffer (pH = 8.0) at the final concentration of 0.1 mM. Then, 2.0 units of hAChE were added. The final concentration of ethanol in the buffer was 0.1% vol. The compound 2c was incubated with hAChE overnight at 25 °C. The same volume of buffer containing compound 2c at the concentration of 0.1 mM but without AChE was used as a control. After the end of incubation, the buffer was filtered out of AChE using a centricon-30 ultrafiltration micro-concentrator from Amicon (Millipore Corporation, Billerica, MA, USA). […]

Series [4] deals with CD1 mice. Put plainly: Acute toxicity (LD50), intraperitoneal injection. In kind it is in vivo. Conditions: i.p. injection. As for the experimental part: All experiments involving animals were performed in accordance with the guidelines set out by the European Union Council Directive 2010/63/EU; the experimental protocols were approved by the Animal Care and Use Committee of the Federal Research Center “Kazan Scientific Center of the Russian Academy of Sciences”. Toxicological experiments were performed using intraperitoneal injection of the various compounds in CD1 mice weighing 20–25 g. Mice were maintained on a 12 h light/dark cycle (light from 7:00 a.m. to 7:00 p.m.) at 20−22 °C and 60−70% relative humidity. Five different doses (determined during preliminary tests) were used with six animals per dose. Animals were observed 14 days after injection, and symptoms of intoxication were recorded. […] LD50 was determined by the method of Weiss. Stock solutions of compounds were prepared in ethanol or water. Compounds were administered intraperitoneally in sterile physiological saline. The concentration of ethanol in physiological saline was 5% vol.

This is an account of results in publication PMC9694926, “Novel Uracil-Based Inhibitors of Acetylcholinesterase with Potency for Treating Memory Impairment in an Animal Model of Alzheimer’s Disease” (Molecules, 2022).

The structures appear in SMILES notation.

T1 sequence (P22303 32-614): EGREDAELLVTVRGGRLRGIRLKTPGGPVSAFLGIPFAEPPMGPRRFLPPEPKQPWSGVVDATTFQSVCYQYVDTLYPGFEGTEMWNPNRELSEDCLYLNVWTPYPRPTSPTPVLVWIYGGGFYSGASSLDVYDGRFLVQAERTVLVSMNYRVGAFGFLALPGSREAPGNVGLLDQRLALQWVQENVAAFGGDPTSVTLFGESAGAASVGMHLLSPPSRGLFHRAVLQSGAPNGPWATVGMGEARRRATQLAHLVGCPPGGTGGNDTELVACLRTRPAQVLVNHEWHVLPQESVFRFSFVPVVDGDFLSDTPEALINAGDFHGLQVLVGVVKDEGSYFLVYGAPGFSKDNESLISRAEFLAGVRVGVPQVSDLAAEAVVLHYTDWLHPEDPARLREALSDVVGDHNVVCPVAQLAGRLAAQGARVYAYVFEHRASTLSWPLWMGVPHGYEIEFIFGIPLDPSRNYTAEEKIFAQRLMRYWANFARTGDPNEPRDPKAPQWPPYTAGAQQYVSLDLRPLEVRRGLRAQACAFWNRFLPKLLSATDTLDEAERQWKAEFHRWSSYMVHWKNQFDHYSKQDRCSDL

Take `CCN(CCCCCn1c(C)cc(=O)n(CCCCCN(CC)Cc2cccc(C(=O)OC)c2)c1=O)Cc1cccc(C(=O)OC)c1` [2c, 1,3-Bis[5-(meta-methoxycarbonylbenzylethylamino)pentyl]-6-methyluracil]: the type of inhibition result in series [1] and in series [2] was “mixed type” each time. Besides, the “Kui (uncompetitive)” value in series [1] (substrate ATC) is 315 ± 95 pM; in series [2] (substrate BTC) it was 24 ± 4.6 µM. In addition, the “stability in the presence of AChE (hydrolysis of ester groups)” value in series [3] is reported as “remains stable in the presence of AChE”. Besides, the LD50 in series [4] is listed as 147 mg/kg.

A word on the LD50: it is the dose expected to kill half of the subjects tested. Read a low LD50 as greater toxicity.
